Results: patent US10544149B2, “Bicyclic alkyne derivatives and uses thereof” (Agency for Science, Technology and Research, priority 2013, dated 2020)
Where a name gives a salt, the structure may show the parent alone.

Tests used:
MNK1 = MNK1 (Homo sapiens, UniProt Q9BUB5); test: MNK1 enzymatic assay; format: biochemical
MNK2 = MNK2 (Homo sapiens, UniProt Q9HBH9); test: MNK2 enzymatic assay; format: biochemical
[1] = tested on: eIF4e phosphorylation in Hela cell line; test: eIF4e phosphorylation inhibition in Hela cell line; format: cell-based; conditions: Homo sapiens, cellular

Chain of MNK1 (Q9BUB5 whole entry): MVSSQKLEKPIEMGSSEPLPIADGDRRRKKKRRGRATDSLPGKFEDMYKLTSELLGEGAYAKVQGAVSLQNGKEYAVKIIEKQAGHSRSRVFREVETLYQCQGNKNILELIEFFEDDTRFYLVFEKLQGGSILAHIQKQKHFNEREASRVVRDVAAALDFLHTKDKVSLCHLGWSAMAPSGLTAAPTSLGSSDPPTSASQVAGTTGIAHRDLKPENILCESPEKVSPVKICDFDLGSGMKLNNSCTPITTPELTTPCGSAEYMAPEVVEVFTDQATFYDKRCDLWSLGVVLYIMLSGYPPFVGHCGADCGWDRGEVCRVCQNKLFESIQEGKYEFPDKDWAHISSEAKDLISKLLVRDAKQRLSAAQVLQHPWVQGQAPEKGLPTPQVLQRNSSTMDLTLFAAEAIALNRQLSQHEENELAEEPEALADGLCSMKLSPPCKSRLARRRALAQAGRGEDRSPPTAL
Chain of MNK2 (Q9HBH9 whole entry): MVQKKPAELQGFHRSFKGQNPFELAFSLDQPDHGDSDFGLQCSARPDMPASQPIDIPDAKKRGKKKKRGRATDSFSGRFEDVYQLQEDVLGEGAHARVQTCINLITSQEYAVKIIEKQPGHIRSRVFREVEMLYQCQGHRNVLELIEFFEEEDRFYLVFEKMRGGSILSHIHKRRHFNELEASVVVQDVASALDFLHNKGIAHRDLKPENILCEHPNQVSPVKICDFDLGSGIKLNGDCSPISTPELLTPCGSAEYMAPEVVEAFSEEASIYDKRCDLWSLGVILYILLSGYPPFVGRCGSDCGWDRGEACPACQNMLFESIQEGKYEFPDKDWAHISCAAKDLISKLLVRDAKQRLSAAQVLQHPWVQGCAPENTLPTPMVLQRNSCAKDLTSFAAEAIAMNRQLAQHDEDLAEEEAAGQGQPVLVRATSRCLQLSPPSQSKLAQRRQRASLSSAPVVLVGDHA

Nc1cc(C#Cc2cnc3ccc(-c4ccc(C(=O)N5CCOCC5)cc4F)nn23)ccn1 (as salt: salt) [Example 122, (4-(3-((2-aminopyridin-4-yl)ethynyl)imidazo[1,2-b]pyridazin-6-yl)-3-fluorophenyl)(morpholino)methanone formate salt]
melting point: 78.2 to 79.4 °C

Nc1cc(C#Cc2cnn3ccc(-c4ccc(C(=O)N5CCOCC5)cc4F)nc23)ccn1 (as salt: salt) [Example 123, (4-(3-((2-aminopyridin-4-yl)ethynyl)pyrazolo[1,5-a]pyrimidin-5-yl)-3-fluorophenyl)(morpholino) methanone formic acid salt]
melting point: 57.6 to 58.9 °C

CN1CCN(C(=O)c2ccc(-c3ccc4ncc(C#Cc5ccnc(N)c5)n4n3)cc2)CC1 [Example 76, (4-(3-((2-aminopyridin-4-yl)ethynyl)imidazo[1,2-b]pyridazin-6-yl)phenyl)(4-methylpiperazin-1-yl)methanone]
melting point: 120 to 122 °C

CN1CCN(C(=O)c2ccc(-c3ccc4ncc(C#Cc5ccnc(N)c5)n4n3)cc2)CC1=O [Example 77, 4-(4-(3-((2-aminopyridin-4-yl)ethynyl)imidazo[1,2-b]pyridazin-6-yl)benzoyl)-1-methylpiperazin-2-one]
melting point: 193.6 to 194.6 °C

Nc1cc(C#Cc2cnc3ccc(-c4ccc(C(=O)N5CCOCC5)c(Cl)c4)nn23)ccn1 [Example 82, (4-(3-((2-aminopyridin-4-yl)ethynyl)imidazo[1,2-b]pyridazin-6-yl)-2-chlorophenyl)(morpholino)methanone]
melting point: 193.7 to 194.8 °C

Nc1cc(C#Cc2cnc3ccc(-c4ccc(C(=O)N5CCOCC5)c(C(F)(F)F)c4)nn23)ccn1 [Example 83, (4-(3-((2-aminopyridin-4-yl)ethynyl)imidazo[1,2-b]pyridazin-6-yl)-2-(trifluoromethyl)phenyl) (morpholino)methanone]
melting point: 258.5 to 258.9 °C

CC(=O)Nc1cc(C#Cc2cnc3ccc(-c4ccc(C(=O)N5CCN(C)C(=O)C5)cc4)nn23)ccn1 [Example 84, N-(4-((6-(4-(4-methyl-3-oxopiperazine-1-carbonyl)phenyl)imidazo[1,2-b]pyridazin-3-yl)ethynyl)pyridin-2-yl)acetamide]
melting point: 258.2 to 259.5 °C

CN1CCN(C(=O)c2ccc(-c3ccc4ncc(C#Cc5ccnc6[nH]ccc56)n4n3)cc2)CC1=O [Example 85, 4-(4-(3-((1H-pyrrolo[2,3-b]pyridin-4-yl)ethynyl)imidazo[1,2-b]pyridazin-6-yl)benzoyl)-1-methylpiperazin-2-one]
melting point: 207.2 to 208.2 °C

Nc1cc(C#Cc2cnc3ccc(-c4ccc(C(=O)N5CCOCC5)cc4)cn23)c2cc[nH]c2n1 [Example 098, (4-(3-((6-amino-1H-pyrrolo[2,3-b]pyridin-4-yl)ethynyl)imidazo[1,2-a]pyridin-6-yl)phenyl)(morpholino)methanone]
IC50 (MNK1): < 0.5 µM | IC50 (MNK2): < 0.5 µM | IC50 [1]: < 5 µM

O=C(c1ccc(-c2ccc3ncc(C#Cc4ccnc5[nH]ccc45)n3c2)cc1)N1CCOCC1 [Example 099, (4-(3-((1H-pyrrolo[2,3-b]pyridin-4-yl)ethynyl)imidazo[1,2-a]pyridin-6-yl)phenyl)(morpholino)methanone]
IC50 (MNK1): < 0.5 µM | IC50 (MNK2): < 0.5 µM | IC50 [1]: < 5 µM

CC(=O)Nc1cc(C#Cc2cnc3ccc(-c4ccc(C(=O)N5CCNCC5)cc4)cn23)ccn1 [Example 101, N-(4-((6-(4-(piperazine-1-carbonyl)phenyl)imidazo[1,2-a]pyridin-3-yl)ethynyl)pyridin-2-yl)acetamide]
IC50 (MNK1): < 0.5 µM | IC50 (MNK2): < 0.5 µM | IC50 [1]: < 5 µM

Cc1c(N)cccc1Nc1cc(C#Cc2cnc3ccc(-c4ccc(C(=O)N5CCNCC5)cc4)cn23)ccn1 [Example 102, (4-(3-((2-(3-amino-2-methylphenylamino)pyridin-4-yl)ethynyl)imidazo[1,2-a]pyridin-6-yl)phenyl) (piperazin-1-yl)methanone]
IC50 (MNK1): < 0.5 µM | IC50 (MNK2): < 0.5 µM | IC50 [1]: < 5 µM

O=C(Nc1cc(C#Cc2cnc3ccc(-c4ccc(C(=O)N5CCNCC5)cc4)cn23)ccn1)c1ccccc1 [Example 103, (N-(4-((6-(4-(piperazine-1-carbonyl)phenyl)imidazo[1,2-a]pyridin-3-yl)ethynyl)pyridin-2-yl)benzamide)]
IC50 (MNK1): < 0.5 µM | IC50 (MNK2): < 0.5 µM | IC50 [1]: < 5 µM

O=C(c1ccc(-c2ccc3ncc(C#Cc4ccnc5[nH]ncc45)n3c2)cc1)N1CCNCC1 [Example 104, (4-(3-((1H-pyrazolo[3,4-b]pyridin-4-yl)ethynyl)imidazo[1,2-a]pyridin-6-yl)phenyl) (piperazin-1-yl)methanone]
IC50 (MNK1): < 0.5 µM | IC50 (MNK2): < 0.5 µM | IC50 [1]: < 5 µM

O=C(c1ccc(-c2ccc3ncc(C#Cc4ccnc(Nc5cccnc5)c4)n3c2)cc1)N1CCNCC1 [Example 105, piperazin-1-yl(4-(3-((2-(pyridin-3-ylamino)pyridin-4-yl)ethynyl)imidazo[1,2-a]pyridin-6-yl)phenyl)methanone]
IC50 (MNK1): < 0.5 µM | IC50 (MNK2): < 0.5 µM | IC50 [1]: < 5 µM

Cc1ccccc1Nc1cc(C#Cc2cnc3ccc(-c4ccc(C(=O)N5CCNCC5)cc4)cn23)ccn1 [Example 106, piperazin-1-yl(4-(3-((2-(o-tolylamino)pyridin-4-yl)ethynyl)imidazo[1,2-a]pyridin-6-yl)phenyl)methanone]
IC50 (MNK1): < 0.5 µM | IC50 (MNK2): < 0.5 µM | IC50 [1]: < 5 µM

Cc1ncccc1Nc1cc(C#Cc2cnc3ccc(-c4ccc(C(=O)N5CCNCC5)cc4)cn23)ccn1 [Example 107, (4-(3-((2-(2-methylpyridin-3-ylamino)pyridin-4-yl)ethynyl)imidazo[1,2-a]pyridin-6-yl)phenyl)(piperazin-1-yl)methanone]
IC50 (MNK1): < 0.5 µM | IC50 (MNK2): < 0.5 µM | IC50 [1]: < 5 µM

Nc1cc(C#Cc2cnc3ccc(-c4ccc(C(=O)N5CCNCC5)cc4)cn23)ccn1 [Example 108, (4-(3-((2-aminopyridin-4-yl)ethynyl)imidazo[1,2-a]pyridin-6-yl)phenyl)(piperazin-1-yl)methanone]
IC50 (MNK1): < 0.5 µM | IC50 (MNK2): < 0.5 µM | IC50 [1]: < 5 µM

Nc1cc(C#Cc2cnc3ccc(-c4ccc(C(=O)N5CCNCC5)cc4)cn23)c2cc[nH]c2n1 [Example 111, (4-(3-((6-amino-1H-pyrrolo[2,3-b]pyridin-4-yl)ethynyl)imidazo[1,2-a]pyridin-6-yl)phenyl)(piperazin-1-yl)methanone]
IC50 (MNK1): < 0.5 µM | IC50 (MNK2): < 0.5 µM | IC50 [1]: < 5 µM

Nc1cc(C#Cc2cnc3ccc(-c4ccc(C(=O)N5CCOCC5)cc4F)nn23)ccn1 [Example 122, (4-(3-((2-aminopyridin-4-yl)ethynyl)imidazo[1,2-b]pyridazin-6-yl)-3-fluorophenyl)(morpholino)methanone formate salt]
IC50 (MNK1): < 0.5 µM | IC50 (MNK2): < 0.5 µM | IC50 [1]: < 5 µM

Nc1cc(C#Cc2cnn3ccc(-c4ccc(C(=O)N5CCOCC5)cc4F)nc23)ccn1 [Example 123, (4-(3-((2-aminopyridin-4-yl)ethynyl)pyrazolo[1,5-a]pyrimidin-5-yl)-3-fluorophenyl)(morpholino) methanone formic acid salt]
IC50 (MNK1): < 0.5 µM | IC50 (MNK2): < 0.5 µM | IC50 [1]: < 5 µM
